Source: patent US10662210B2, “Compositions and methods comprising osmium for the treatment of cancers” (Massachusetts Institute of Technology, priority 2014, dated 2020)

Legend:
Type in all cases: cell-based, human
MRC-5 (lung normal) = experiment: Cytotoxicity MTT assay; conditions: 72 h
Experimental: (§1) The anti-proliferative properties of 1-4 against a panel of human cancer cell lines were assessed by the MTT [3-(4,5-dimethylthiazol-2-yl)-2,5-diphenyltetrazolium bromide] assay. Cisplatin was included as a control. The IC50 values, concentrations required to induce 50% viability, were derived from dose-response curves and are summarized in Table 1.
(§2) A549 lung adenocarcinoma, HeLa cervical cancer, and MRC5 normal human fetal lung fibroblast cell lines were maintained in Dulbecco's Modified Eagle's Medium (DMEM-low glucose) supplemented with 10% fetal bovine serum and 1% penicillin/streptomycin. The cisplatin-sensitive A2780 ovarian cancer and the cisplatin-resistant A2780/CP70 ovarian cancer cell lines were cultured in RPMI (glutamine free) media supplemented with 10% fetal bovine serum and 1% penicillin/streptomycin. All cells were grown at 310 K in a humidified atmosphere containing 5% CO2.
(§3) The colorimetric MTT assay was used to determine the toxicity of the osmium complexes and cisplatin. Cells (2×10^3) were seeded in each well of a 96-well plate. After incubating the cells overnight, various concentrations of test compound (0.3-100 μM) were added and incubated for 72 h (total volume 200 μL). The test compounds were prepared as 10 mM solutions in DMSO and diluted using media. The final concentration of DMSO in each well was 0.5% and this amount was present in the untreated control as well. Cisplatin was prepared as a 5 mM solution in PBS and diluted further using media. After 72 h, the medium was removed, 200 μL of a 0.4 mg/mL solution of MTT in DMEM or RPMI was added, and the plate was incubated for an additional 1-2 h. The DMEM/MTT or RPMI/MTT mixture was aspirated and 200 μL of DMSO was added to dissolve the resulting purple formazan crystals. The absorbance of the solution wells was read at 550 nm. Absorbance values were normalized to DMSO-containing control wells and plotted as concentration of test compound versus % cell viability. IC50 values were interpolated from the resulting dose dependent curves. The reported IC50 values are the average from at least three independent experiments, each of which consisted of six replicates per concentration level.

A549 (lung) = experiment: Cytotoxicity MTT assay; conditions: 72 h
Experimental: as §1, §2, §3

A2780 (ovarian) = experiment: Cytotoxicity MTT assay; conditions: for IC50: MTT, 72 h
Experimental: as §1, §2, §3

HeLa (cervical) = experiment: Cytotoxicity MTT assay; conditions: 72 h
Experimental: as §1, §2, §3

A2780/CP70 (ovarian) = experiment: Cytotoxicity MTT assay; conditions: 72 h, cisplatin-resistant
Experimental: as §1, §2, §3

[1] = test system: genomic DNA from A2780 cells; experiment: Intracellular DNA osmium content; conditions: 10 μM, 12 h
Experimental: To gain further insight into the modes of action of 2 and 4, immunoblotting analyses were conducted to monitor changes in expression of biomarkers related to the DNA damage pathway (FIG. 8). […] This difference could be related to steric effects imposed by the phenyl groups in 4.
To measure the amount osmium on genomic DNA, ca. 1 million A2780 cells were treated with 10 μM of the complexes at 37° C. for 12 h. Then the media were removed, the cells were washed with PBS solution (1 mL×3), harvested, and centrifuged. The cellular pellet was suspended in DNAzol (1 mL, genomic DNA isolation reagent, MRC). The DNA was precipitated with ethanol (0.5 mL), washed with 75% ethanol (0.75 mL×3), and re-dissolved in 200 μL of 8 mM NaOH. The DNA concentration was determined by UV-visible spectroscopy, and osmium was quantified by GFAAS. The reported values are the average of at least three independent experiments with the error reported as the standard deviation.

A2780 cells = experiment: Dual Annexin V staining/PI flow cytometry assay; conditions: 72 hours
Experimental: To have a more complete understanding of the cellular response induced by 2 or 4, their mode of cell killing was evaluated. Many clinically approved cancer drugs exert their cytotoxic effects through apoptosis, and so the features related to this pathway were monitored. Apoptotic cells underwent morphological changes that lead to cell membrane disorientation. […] Cells can undergo other forms of cell death such as necrosis and autophagy. To probe these pathways, cytotoxicity assays were carried out in the presence of […], chloroquine, and IM-54, respectively. Because both chloroquine and IM-54 had little effect on the potency of either of the osmium complexes, necrosis and autophagy were ruled out as possible death pathways. […] On the other hand, 4 initiated ER stress, culminating in p53 independent, caspase directed apoptosis (FIG. 4).
In order to monitor the cell cycle, flow cytometry studies were carried out. […] DNA content was measured on a FACSCalibur-HTS flow cytometer (BD Biosciences) using laser excitation at 488 nm and 20,000 events per sample were acquired. Cell cycle profiles were analysed using the ModFit software. […] The samples were kept on ice prior to being read on the FACSCalibur-HTS flow cytometer (BD Biosciences) and 20,000 events per sample were acquired. Cell populations were analysed using the FlowJo software (Tree Star).

Row | SMILES | IC50 (MRC-5 (lung normal)) [µM] | IC50 (A549 (lung)) [µM] | higher potency for A2780 than for normal lung fibroblast MRC5 (A2780 (ovarian); A2780 vs MRC5) [fold] | IC50 (A2780 (ovarian)) [nM] | IC50 (HeLa (cervical)) [µM] | IC50 (A2780/CP70 (ovarian)) [µM] | Os/DNA ratio on genomic DNA [1] | occurrence of apoptosis (Annexin V/PI) (A2780 cells)
1 | [N]#[Os]1([Cl])([Cl])([Cl])[N]2C=CC=c3ccc4c(c32)[N]1C=CC=4 [Complex 2, OsN(1,10-phenanthroline)Cl3] | 16.6 ± 3.61 | 7.86 ± 1.41 | 8 | 1990 ± 230 | 6.95 ± 0.53 | 2.96 ± 0.23 | about 21 pmol/μg | induced large populations of cells to undergo early and late stage apoptosis
2 | [N]#[Os]1([Cl])([Cl])([Cl])[N]2C=CC(c3ccccc3)=c3ccc4c(c32)[N]1C=CC=4c1ccccc1 [Complex 4, OsN(4,7-diphenyl-1,10-phenanthroline)Cl3] | 8.45 ± 1.21 | 1.97 ± 0.02 | – | 3360 ± 90 | 2.86 ± 0.51 | 3.4 ± 0.28 | about 14 pmol/μg | induced large populations of cells to undergo early and late stage apoptosis
